Experiments:
Format in all cases: biochemical
[1] = target: T1, Zap70 (Homo sapiens, UniProt P43403); test: AlphaScreen kinase assay, Zap70; settings: read-out: IC50, activity toward kinase Zap70
T1 construct: P1868.pFastBac1 ZAP70 D327-G606 HIS, WT; His7 (HHHHHHH) (C); made in house
T1 sequence (P43403 with tags, fused parts or gaps): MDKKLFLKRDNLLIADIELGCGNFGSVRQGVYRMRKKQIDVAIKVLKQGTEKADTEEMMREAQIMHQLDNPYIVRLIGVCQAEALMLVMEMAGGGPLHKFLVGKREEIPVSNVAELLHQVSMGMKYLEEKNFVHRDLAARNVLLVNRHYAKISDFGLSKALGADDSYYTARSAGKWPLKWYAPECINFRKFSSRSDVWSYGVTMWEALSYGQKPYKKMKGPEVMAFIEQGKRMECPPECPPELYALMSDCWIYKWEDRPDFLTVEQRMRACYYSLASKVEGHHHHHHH
From the text: AlphaScreen assay was used to screen additional kinases. The assay is similarly dependent on the phosphorylation of a peptide substrate. In this assay, an antibody that recognizes phosphorylated substrate is bound to an acceptor bead. The peptide substrate is attached to biotin, which binds to a donor head that contains streptavidin. Thus phosphorylated substrate is bound by antibody and streptavidin, bringing the donor and acceptor heads into close proximity when kinase is not inhibited. The donor produces singlet oxygen which results in emission from the acceptor when they are in close proximity. Conversely, when kinase is inhibited, the donor and acceptor beads are not associated and the emission from the acceptor is reduced.
AlphaScreen assays were done using compounds dissolved in DMSO to a concentration of 20 mM. The compounds were diluted accordingly to the desired final concentrations in each sample well, using 1:3 serial dilution for a total of 8 concentration points.

[2] = target: T2, Stk6 (Homo sapiens, UniProt O14965); test: Z'-Lyte FRET kinase assay (Invitrogen), Stk6; settings: read-out: IC50, activity toward kinase Stk6
T2 construct: purchased Invitrogen (Carlsbad, Calif.), screening service
T2 sequence (O14965 1-403): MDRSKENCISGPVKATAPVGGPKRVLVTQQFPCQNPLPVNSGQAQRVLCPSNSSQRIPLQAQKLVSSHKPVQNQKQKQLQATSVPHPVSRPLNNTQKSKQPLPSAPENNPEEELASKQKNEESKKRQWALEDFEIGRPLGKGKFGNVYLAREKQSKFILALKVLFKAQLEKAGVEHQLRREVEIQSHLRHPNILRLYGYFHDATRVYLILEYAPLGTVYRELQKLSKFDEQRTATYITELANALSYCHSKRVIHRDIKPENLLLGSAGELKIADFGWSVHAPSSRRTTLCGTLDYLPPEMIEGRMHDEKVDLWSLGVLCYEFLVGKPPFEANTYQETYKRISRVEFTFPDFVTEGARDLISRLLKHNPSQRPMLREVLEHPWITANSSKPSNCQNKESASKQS

[3] = target: T3, Ret (Homo sapiens, UniProt P07949); test: AlphaScreen kinase assay, Ret; settings: read-out: IC50, activity toward kinase Ret
T3 construct: P1378.pET-SF BI-PTP RET H661-R1012 HIS; made in house
T3 sequence (P07949 with tags, fused parts or gaps): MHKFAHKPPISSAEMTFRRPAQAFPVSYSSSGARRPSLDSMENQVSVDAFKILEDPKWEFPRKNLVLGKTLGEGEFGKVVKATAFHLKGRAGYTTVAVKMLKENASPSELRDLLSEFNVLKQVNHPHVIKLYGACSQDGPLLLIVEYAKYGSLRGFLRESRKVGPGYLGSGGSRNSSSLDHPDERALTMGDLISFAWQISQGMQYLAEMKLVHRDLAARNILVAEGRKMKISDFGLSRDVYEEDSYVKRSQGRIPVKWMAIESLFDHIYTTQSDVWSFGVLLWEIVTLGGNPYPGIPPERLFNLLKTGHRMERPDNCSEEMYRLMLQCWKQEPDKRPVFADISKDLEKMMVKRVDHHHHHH

[4] = target: T4, B-Raf V600E (Homo sapiens, UniProt P15056, V600E); test: AlphaScreen kinase assay, B-Raf V600E; settings: read-out: IC50, activity toward kinase B-Raf V600E
T4 construct: P4254. pFastBacBD-CDC37 BRAF D437-K722-X, V600E; His6 with pFastBac HT leader (TEV site) (N); made in house; host or cells: Sf9 (baculovirus; chaperone CDC37 co-expressed)
T4 sequence (P15056 with tags, fused parts or gaps V600E): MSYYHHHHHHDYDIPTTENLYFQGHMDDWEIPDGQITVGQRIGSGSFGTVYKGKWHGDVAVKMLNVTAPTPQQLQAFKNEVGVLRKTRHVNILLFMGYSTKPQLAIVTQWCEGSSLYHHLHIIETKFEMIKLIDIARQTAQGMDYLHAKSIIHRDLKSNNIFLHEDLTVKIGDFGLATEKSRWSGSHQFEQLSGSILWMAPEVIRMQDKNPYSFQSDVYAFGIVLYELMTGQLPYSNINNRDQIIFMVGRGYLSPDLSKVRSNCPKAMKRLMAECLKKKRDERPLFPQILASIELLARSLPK

[5] = target: T5, Kdr (Homo sapiens, UniProt P35968); test: Z'-Lyte FRET kinase assay (Invitrogen), Kdr; settings: read-out: IC50, activity toward kinase Kdr
T5 construct: purchased Invitrogen (assay run by Invitrogen)
T5 sequence (P35968 20-1356): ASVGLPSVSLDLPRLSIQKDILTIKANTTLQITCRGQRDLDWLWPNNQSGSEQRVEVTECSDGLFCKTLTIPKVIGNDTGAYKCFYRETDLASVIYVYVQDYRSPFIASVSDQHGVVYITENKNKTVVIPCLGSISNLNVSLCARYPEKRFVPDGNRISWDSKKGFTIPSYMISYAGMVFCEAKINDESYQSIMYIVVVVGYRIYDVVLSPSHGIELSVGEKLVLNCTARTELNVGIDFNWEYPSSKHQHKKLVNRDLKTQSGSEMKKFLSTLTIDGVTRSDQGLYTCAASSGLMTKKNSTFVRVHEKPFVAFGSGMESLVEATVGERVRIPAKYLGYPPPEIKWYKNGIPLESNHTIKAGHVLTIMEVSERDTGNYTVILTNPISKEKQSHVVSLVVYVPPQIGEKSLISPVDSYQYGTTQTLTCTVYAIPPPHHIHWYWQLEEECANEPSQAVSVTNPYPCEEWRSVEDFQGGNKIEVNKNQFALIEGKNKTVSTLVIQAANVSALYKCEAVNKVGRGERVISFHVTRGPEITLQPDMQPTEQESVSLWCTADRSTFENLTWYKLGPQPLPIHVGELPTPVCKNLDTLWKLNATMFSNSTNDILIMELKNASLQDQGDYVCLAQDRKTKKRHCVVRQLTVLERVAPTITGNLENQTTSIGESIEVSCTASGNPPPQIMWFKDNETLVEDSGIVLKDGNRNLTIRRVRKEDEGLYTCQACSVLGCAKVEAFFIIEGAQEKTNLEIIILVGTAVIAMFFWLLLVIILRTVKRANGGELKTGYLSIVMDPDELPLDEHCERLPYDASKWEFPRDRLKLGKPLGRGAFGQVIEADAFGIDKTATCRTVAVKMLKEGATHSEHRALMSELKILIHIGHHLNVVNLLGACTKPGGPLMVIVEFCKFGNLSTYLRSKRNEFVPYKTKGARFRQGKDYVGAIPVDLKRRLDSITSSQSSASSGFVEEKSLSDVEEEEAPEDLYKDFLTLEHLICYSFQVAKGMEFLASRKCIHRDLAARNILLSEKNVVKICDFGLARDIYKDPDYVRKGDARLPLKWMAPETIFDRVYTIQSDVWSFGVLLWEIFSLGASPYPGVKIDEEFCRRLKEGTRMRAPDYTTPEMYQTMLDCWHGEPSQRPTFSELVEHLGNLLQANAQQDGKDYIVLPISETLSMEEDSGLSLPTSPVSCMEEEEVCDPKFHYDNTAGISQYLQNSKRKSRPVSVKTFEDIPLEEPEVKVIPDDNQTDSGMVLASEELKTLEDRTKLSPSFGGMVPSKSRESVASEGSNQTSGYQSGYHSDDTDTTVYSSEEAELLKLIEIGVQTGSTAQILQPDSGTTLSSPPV

[6] = target: T6, Jnk3 (Homo sapiens, UniProt P53779); test: AlphaScreen kinase assay, Jnk3; settings: read-out: IC50, activity toward kinase Jnk3
T6 construct: purchased Upstate Biotechnology
T6 sequence (P53779 whole entry): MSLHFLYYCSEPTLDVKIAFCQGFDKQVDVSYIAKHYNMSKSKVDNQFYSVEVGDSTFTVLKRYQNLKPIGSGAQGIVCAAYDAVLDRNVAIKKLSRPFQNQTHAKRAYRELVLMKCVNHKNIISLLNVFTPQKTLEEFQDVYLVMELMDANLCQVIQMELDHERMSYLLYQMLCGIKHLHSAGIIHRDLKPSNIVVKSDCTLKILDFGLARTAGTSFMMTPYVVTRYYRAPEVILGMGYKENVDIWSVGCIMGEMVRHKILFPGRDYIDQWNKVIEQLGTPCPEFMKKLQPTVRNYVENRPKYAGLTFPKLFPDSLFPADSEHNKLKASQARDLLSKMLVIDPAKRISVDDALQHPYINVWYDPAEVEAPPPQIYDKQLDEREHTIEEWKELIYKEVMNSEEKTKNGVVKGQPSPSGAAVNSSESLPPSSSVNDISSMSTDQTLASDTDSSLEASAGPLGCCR

[7] = target: T7, FGFR1 (Homo sapiens, UniProt P11362, C488A/C584S); test: AlphaScreen kinase assay, FGFR1; settings: read-out: IC50, activity toward kinase FGFR
T7 construct: P1351.pET N6 BI-PTP FGFR A458-E765-X C488A, C584S; made in house; host or cells: E. coli (PTP1B co-expressed)
T7 sequence (P11362 458-765 C488A/C584S): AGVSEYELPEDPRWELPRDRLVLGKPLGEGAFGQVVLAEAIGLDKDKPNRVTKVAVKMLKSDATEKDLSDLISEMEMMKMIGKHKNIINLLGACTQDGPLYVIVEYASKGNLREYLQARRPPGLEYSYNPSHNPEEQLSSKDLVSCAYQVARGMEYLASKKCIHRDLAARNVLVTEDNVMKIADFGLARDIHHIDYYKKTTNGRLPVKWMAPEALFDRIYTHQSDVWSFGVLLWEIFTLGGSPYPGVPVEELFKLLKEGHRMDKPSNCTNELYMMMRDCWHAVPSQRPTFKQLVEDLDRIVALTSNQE

[8] = target: T8, Kit (Homo sapiens, UniProt P10721); test: AlphaScreen kinase assay, Kit; settings: read-out: IC50, activity toward kinase Kit
T8 construct: P1332.N6 BI PTP KIT M552-K948-X COD; His6 (N); made in house; host or cells: E. coli (PTP1B co-expressed)
T8 sequence (P10721 with tags, fused parts or gaps): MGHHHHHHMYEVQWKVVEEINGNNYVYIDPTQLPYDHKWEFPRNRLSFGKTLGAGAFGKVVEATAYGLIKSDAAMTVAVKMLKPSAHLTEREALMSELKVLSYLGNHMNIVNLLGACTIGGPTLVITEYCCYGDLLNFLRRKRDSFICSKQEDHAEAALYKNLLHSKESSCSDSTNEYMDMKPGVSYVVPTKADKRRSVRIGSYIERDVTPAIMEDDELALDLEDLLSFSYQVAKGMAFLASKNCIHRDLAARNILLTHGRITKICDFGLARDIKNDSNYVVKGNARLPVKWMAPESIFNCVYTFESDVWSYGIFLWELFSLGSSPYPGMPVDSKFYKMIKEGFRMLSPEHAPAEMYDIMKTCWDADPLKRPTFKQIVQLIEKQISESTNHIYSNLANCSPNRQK

| IC50 [1] | Structure (SMILES) | also measured |
| --- | --- | --- |
| ≤ 10 µM | Cc1[nH]c2ncccc2c1-c1cccs1 [Compound P-0249] | IC50 [2]: ≤ 10 µM |
| ≤ 10 µM | NC(=O)c1ccc(-c2cnc3[nH]cc(C(=O)c4ccc(Cl)cc4)c3c2)cc1 [Compound P-1073] | IC50 [3]: ≤ 10 µM |
| ≤ 10 µM | COCc1c[nH]c2ncccc12 [Compound P-1197] | – |
| ≤ 10 µM | O=C(OCc1ccccc1)c1cnc2[nH]ccc2c1 [Compound P-0607] | – |
| ≤ 10 µM | O=C(c1ccccc1)c1c[nH]c2c1cc(Br)c[n+]2[O-] [Compound P-0275] | – |
| ≤ 10 µM | CC(C)(C)NCc1c[nH]c2ncccc12 [Compound P-0476] | – |
| ≤ 10 µM | COc1cccc(-c2ccc(S(=O)(=O)NCc3c[nH]c4ncccc34)s2)c1 [Compound P-0676] | – |
| ≤ 10 µM | Fc1ccc(Cc2nc(-c3c[nH]c4ncccc34)no2)cc1 [Compound P-0602] | – |
| ≤ 10 µM | O=S(=O)(NCc1c[nH]c2ncccc12)c1ccc(Cl)s1 [Compound P-0930] | – |
| ≤ 10 µM | CS(=O)(=O)Nc1cccc(-c2cnc3[nH]cc(C(=O)c4ccc5nsnc5c4)c3c2)c1 [Compound P-1089] | IC50 [3]: ≤ 10 µM |
| ≤ 10 µM | COC(c1ccc(Br)cc1)c1c[nH]c2ncc(-c3cccc(S(C)(=O)=O)c3)cc12 (stereo not shown) [Compound P-0434] | IC50 [4]: ≤ 10 µM; IC50 [3]: ≤ 10 µM |
| ≤ 10 µM | CCOC(=O)C(Cc1c[nH]c2ncccc12)C(=O)OCC [Compound P-0642] | – |
| ≤ 10 µM | Fc1cc(F)cc(-c2ccnc3[nH]ccc23)c1 [Compound P-0296] | IC50 [5]: ≤ 10 µM |
| ≤ 10 µM | CS(=O)(=O)c1ccc(CNCc2[nH]c3ncccc3c2-c2cccc(CO)c2)cc1 [Compound P-0523] | – |
| ≤ 10 µM | O=C(O)/C=C/c1cccc(-c2cnc3[nH]cc(C(=O)c4ccc5nsnc5c4)c3c2)c1 [Compound P-1019] | IC50 [3]: ≤ 10 µM |
| ≤ 10 µM | Brc1c(CNCc2cccnc2)[nH]c2ncccc12 [Compound P-0875] | – |
| ≤ 10 µM | O=S(=O)(c1ccsc1)N1CCN(Cc2c[nH]c3ncccc23)CC1 [Compound P-1051] | – |
| ≤ 10 µM | O=C(c1cccc(Cl)c1Cl)c1c[nH]c2ncc(-c3ccsc3)cc12 [Compound P-0698] | IC50 [4]: ≤ 10 µM; IC50 [6]: ≤ 10 µM; IC50 [3]: ≤ 10 µM; IC50 [7]: ≤ 10 µM |
| ≤ 10 µM | Clc1ccc(/C=C\c2c[nH]c3ncccc23)cn1 [Compound P-0360] | – |
| ≤ 10 µM | O=S(=O)(NCc1c[nH]c2ncccc12)c1ccc(O)cc1 [Compound P-0859] | – |
| ≤ 10 µM | COCCN1CCN(Cc2[nH]c3ncccc3c2-c2ccc(C(N)=O)cc2)CC1 [Compound P-0856] | – |
| ≤ 10 µM | c1cnc2[nH]c(CNCCc3ccncc3)cc2c1 [Compound P-0880] | – |
| ≤ 10 µM | CCCCc1ccc(S(=O)(=O)NCc2c[nH]c3ncccc23)cc1 [Compound P-1119] | IC50 [3]: ≤ 10 µM |
| ≤ 10 µM | CN(Cc1ccncc1)Cc1[nH]c2ncccc2c1-c1ccc(C(N)=O)cc1 [Compound P-0727] | – |
| ≤ 10 µM | FC(F)(F)c1ccc(-c2ccnc3[nH]ccc23)cc1 [Compound P-0694] | – |
| ≤ 10 µM | Cc1cccc(-c2ccnc3[nH]cc(CNS(=O)(=O)c4ccc([N+](=O)[O-])cc4)c23)c1 [Compound P-0888] | – |
| ≤ 10 µM | O=C(c1cccc(O)c1)c1ccc(-c2cnc3[nH]ccc3c2)s1 [Compound P-0755] | IC50 [8]: ≤ 10 µM; IC50 [6]: ≤ 10 µM |

| IC50 [1] | Structure (SMILES) | also measured |
| --- | --- | --- |
| ≤ 10 µM | O=Cc1ccc(-c2ccnc3[nH]ccc23)cc1 [Compound P-0996] | – |
| ≤ 10 µM | N#Cc1ccc(/C=C\c2c[nH]c3ncccc23)cc1 [Compound P-0500] | – |
| ≤ 10 µM | CC(C)c1ccc(Cc2c[nH]c3ncccc23)cn1 [Compound P-0379] | IC50 [7]: ≤ 10 µM; IC50 [5]: ≤ 10 µM |
| ≤ 10 µM | O=C(NCc1ccccc1Cl)NCc1c[nH]c2ncccc12 [Compound P-0982] | – |
| ≤ 10 µM | COC(=O)c1ccc(CCc2c[nH]c3ncccc23)cc1 [Compound P-0586] | – |
| ≤ 10 µM | O=C(c1cccc(F)c1)c1c[nH]c2ncc(-c3ccsc3)cc12 [Compound P-0378] | IC50 [8]: ≤ 10 µM; IC50 [6]: ≤ 10 µM; IC50 [3]: ≤ 10 µM |
| ≤ 10 µM | O=C(CCc1c[nH]c2ncccc12)NCc1cccnc1 [Compound P-0456] | – |
| ≤ 10 µM | c1cncc(-c2ccnc3[nH]ccc23)c1 [Compound P-0387] | – |
| ≤ 10 µM | COc1cccc(C(=O)c2c[nH]c3ncc(-c4ccc(C(N)=O)cc4)cc23)c1 [Compound P-1005] | IC50 [6]: ≤ 10 µM; IC50 [3]: ≤ 10 µM |
| ≤ 10 µM | Cc1cc(C(=O)c2c[nH]c3nccc(-c4cccc(/C=C/C(=O)O)c4)c23)no1 [Compound P-1000] | IC50 [4]: ≤ 10 µM; IC50 [3]: ≤ 10 µM |
| ≤ 10 µM | O=C(c1cccc(F)c1)c1c[nH]c2ncc(Br)cc12 [Compound P-0865] | IC50 [8]: ≤ 10 µM; IC50 [3]: ≤ 10 µM; IC50 [7]: ≤ 10 µM |
| ≤ 10 µM | COc1ccc(S(=O)(=O)NCc2ccnc3[nH]ccc23)cc1 [Compound P-0724] | – |
| ≤ 10 µM | Cc1[nH]c2ncccc2c1-c1ccc(C(C)(C)C)cc1 [Compound P-0953] | – |
| ≤ 10 µM | O=Cc1c[nH]c2nccc(Cl)c12 [Compound P-0649] | – |
| ≤ 10 µM | COc1cccc(C(=O)c2c[nH]c3ncc(-c4cccnc4)cc23)c1 [Compound P-0218] | IC50 [6]: ≤ 10 µM |
| ≤ 10 µM | CCCOc1ccc(-c2c[nH]c3ncccc23)cc1 [Compound P-0878] | – |
| ≤ 10 µM | Cc1cc2cccnc2[nH]1 [Compound P-0394] | – |
| ≤ 10 µM | Cc1[nH]c2ncccc2c1-c1ccc(F)c(F)c1 [Compound P-0929] | – |
| ≤ 10 µM | O=C1CCCN1CCCNCc1c[nH]c2ncccc12 [Compound P-1184] | – |
| ≤ 10 µM | NC(=O)c1ccc(-c2cnc3[nH]cc(C(=O)c4ccc5nsnc5c4)c3c2)cc1 [Compound P-1081] | IC50 [3]: ≤ 10 µM |
| ≤ 10 µM | O=S(=O)(NCc1c[nH]c2ncccc12)c1cccc(-c2cccc(CO)c2)c1 [Compound P-0484] | – |
| ≤ 10 µM | COc1ccc(Cc2c[nH]c3ncccc23)cc1F [Compound P-0359] | – |
| ≤ 10 µM | Clc1ccnc2[nH]ccc12 [Compound P-0342] | – |
| ≤ 10 µM | Cc1cc(C)cc(Cc2c[nH]c3ncccc23)c1 [Compound P-0507] | IC50 [7]: ≤ 10 µM |
| ≤ 10 µM | Fc1ccccc1-c1c[nH]c2ncccc12 [Compound P-0195] | IC50 [8]: ≤ 10 µM; IC50 [5]: ≤ 10 µM |
| ≤ 10 µM | COc1ccc(OC)c(S(=O)(=O)NCc2c[nH]c3ncccc23)c1 [Compound P-0808] | – |

| Structure (SMILES) | IC50 [1] | also measured |
| --- | --- | --- |
| COc1cc(CCNCc2cc3cccnc3[nH]2)ccc1O [Compound P-0836] | ≤ 10 µM | – |

Source: US8415469B2, “Compounds and methods for kinase modulation, and indications therefor” (Plexxikon Inc., priority 2005, dated 2013)
